Results as given in US8952024B2, “Herbicidal pyrimidone derivatives” (E I du Pont de Nemours and Company, priority 2009, dated 2015).

What was measured:
Format in all cases: in vivo
[1] = system: barnyardgrass (Echinochloa crus-galli); assay: Test A pre-/postemergence plant response; conditions: for Barnyardgrass plant response rating: visual injury, 0 to 100 scale (0 no effect, 100 complete control), approx. ten days
In short: (§1)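 Greenhouse pots of loam/sand received directed preemergence soil sprays or postemergence sprays (plants 2–10 cm, 1–2 leaf stage), compounds formulated in non-phytotoxic solvent with surfactant. Injury was rated visually versus untreated controls after about ten days on a 0 (no effect) to 100 (complete control) scale.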

corn (Zea mays) = assay: Test A pre-/postemergence plant response; conditions: for Corn plant response rating: visual injury, 0 to 100 scale (0 no effect, 100 complete control), approx. ten days
In short: as §1

[2] = system: giant foxtail (Setaria faberii); assay: Test A pre-/postemergence plant response; conditions: for Foxtail, Giant plant response rating: visual injury, 0 to 100 scale (0 no effect, 100 complete control), approx. ten days
In short: as §1

[3] = system: large crabgrass (Digitaria sanguinalis); assay: Test A pre-/postemergence plant response; conditions: for Crabgrass, Large plant response rating: visual injury, 0 to 100 scale (0 no effect, 100 complete control), approx. ten days
In short: as §1

[4] = system: morningglory (Ipomoea spp.); assay: Test A pre-/postemergence plant response; conditions: for Morningglory plant response rating: visual injury, 0 to 100 scale (0 no effect, 100 complete control), approx. ten days
In short: as §1

[5] = system: pigweed (Amaranthus retroflexus); assay: Test A pre-/postemergence plant response; conditions: for Pigweed plant response rating: visual injury, 0 to 100 scale (0 no effect, 100 complete control), approx. ten days
In short: as §1

[6] = system: velvetleaf (Abutilon theophrasti); assay: Test A pre-/postemergence plant response; conditions: for Velvetleaf plant response rating: visual injury, 0 to 100 scale (0 no effect, 100 complete control), approx. ten days
In short: as §1

[7] = system: wheat (Triticum aestivum); assay: Test A pre-/postemergence plant response; conditions: for Wheat plant response rating: visual injury, 0 to 100 scale (0 no effect, 100 complete control), approx. ten days
In short: as §1

[8] = system: barnyardgrass (Echinochloa crus-galli); assay: Test B flooded paddy test; conditions: for Plant response rating, Barnyardgrass: Flood (flooded paddy test), 125 g ai/ha, scale 0 to 100, 0 is no effect, 100 is complete control, 13 to 15 days; for Barnyardgrass plant response rating: Flood, 31 g ai/ha, scale 0 to 100 (0 no effect, 100 complete control)
In short: (§2)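 Ratings are visual, 0–100 (100 = complete control), taken versus untreated controls 13 to 15 days after treatment in the greenhouse. Compound went straight into paddy water held 3 cm above soil, applied to 2-leaf-stage plants of four species.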

[9] = system: ducksalad (Heteranthera limosa); assay: Test B flooded paddy test; conditions: for Plant response rating, Ducksalad: Flood (flooded paddy test), 125 g ai/ha, scale 0 to 100, 0 is no effect, 100 is complete control, 13 to 15 days; for Ducksalad plant response rating: Flood, 31 g ai/ha, scale 0 to 100 (0 no effect, 100 complete control)
In short: as §2

rice (Oryza sativa) = assay: Test B flooded paddy test; conditions: for Plant response rating, Rice: Flood (flooded paddy test), 125 g ai/ha, scale 0 to 100, 0 is no effect, 100 is complete control, 13 to 15 days; for Rice plant response rating: Flood, 31 g ai/ha, scale 0 to 100 (0 no effect, 100 complete control)
In short: as §2

[10] = system: umbrella sedge (Cyperus difformis); assay: Test B flooded paddy test; conditions: for Plant response rating, Sedge, Umbrella: Flood (flooded paddy test), 125 g ai/ha, scale 0 to 100, 0 is no effect, 100 is complete control, 13 to 15 days; for Sedge, Umbrella plant response rating: Flood, 31 g ai/ha, scale 0 to 100 (0 no effect, 100 complete control)
In short: as §2

[11] = Postemergence, 125 g ai/ha, 0 to 100 scale where 0 is no effect and 100 is complete control
[12] = Preemergence, 125 g ai/ha, 0 to 100 scale, 0 = no effect, 100 = complete control
[13] = Preemergence, 500 g ai/ha, 0 to 100 scale, 0 = no effect, 100 = complete control

| SMILES | Plant response rating, Barnyardgrass [1, 11] | Barnyardgrass plant response rating ([1]; Postemergence, 500 g ai/ha) | Plant response rating, Barnyardgrass [1, 12] | Plant response rating, Barnyardgrass [1, 13] | Plant response rating, Corn (corn (Zea mays); [11]) | Corn plant response rating (corn (Zea mays); Postemergence, 500 g ai/ha) | Plant response rating, Corn (corn (Zea mays); [12]) | Plant response rating, Corn (corn (Zea mays); [13]) | Plant response rating, Foxtail, Giant [2, 11] | Foxtail, Giant plant response rating ([2]; Postemergence, 500 g ai/ha) | Plant response rating, Foxtail, Giant [2, 12] | Plant response rating, Foxtail, Giant [2, 13] | Plant response rating, Crabgrass, Large [3, 11] | Crabgrass, Large plant response rating ([3]; Postemergence, 500 g ai/ha) | Plant response rating, Crabgrass, Large [3, 12] | Plant response rating, Crabgrass, Large [3, 13] | Plant response rating, Morningglory [4, 11] | Plant response rating, Morningglory [4, 12] | Plant response rating, Pigweed [5, 11] | Pigweed plant response rating ([5]; Postemergence, 500 g ai/ha) | further results |
| --- | --- | --- | --- | --- | --- | --- | --- | --- | --- | --- | --- | --- | --- | --- | --- | --- | --- | --- | --- | --- | --- |
| Cc1cc(F)ccc1-n1c(-c2cccc(Br)c2)ncc(C(=O)C2=C(O)CCCC2=O)c1=O [Compound 166] | 80 | 100 | 0 | 20 | 30 | 40 | 0 | 0 | 60 | 90 | 0 | 20 | 40 | 90 | 10 | 70 | 100 | 0 | 70 | 100 | Plant response rating, Morningglory [4, 13]: 0; Plant response rating, Pigweed [5, 12]: 0; Plant response rating, Pigweed [5, 13]: 40; Plant response rating, Velvetleaf [6, 11]: 100; Velvetleaf plant response rating ([6]; Postemergence, 500 g ai/ha): 100; Plant response rating, Velvetleaf [6, 12]: 40; Plant response rating, Velvetleaf [6, 13]: 100; Plant response rating, Wheat [7, 11]: 0; Wheat plant response rating ([7]; Postemergence, 500 g ai/ha): 0; Plant response rating, Wheat [7, 12]: 0; Plant response rating, Wheat [7, 13]: 0; Plant response rating, Barnyardgrass [8]: 20; Barnyardgrass plant response rating [8]: 0; Plant response rating, Ducksalad [9]: 60; Ducksalad plant response rating [9]: 0; Plant response rating, Rice (rice (Oryza sativa)): 0; Rice plant response rating (rice (Oryza sativa)): 0; Plant response rating, Sedge, Umbrella [10]: 70; Sedge, Umbrella plant response rating [10]: 50 |
| COCCOCCn1c(-c2cc(F)cc(F)c2)ncc(C(=O)C2=C(O)CCCC2=O)c1=O [Compound 171] | 50 | 90 | 20 | 70 | 30 | 40 | 0 | 20 | 60 | 90 | 30 | 80 | 60 | 90 | 70 | 100 | 100 | 0 | 100 | 100 | Morningglory plant response rating ([4]; Postemergence, 500 g ai/ha): 100; Plant response rating, Morningglory [4, 13]: 60; Plant response rating, Pigweed [5, 12]: 50; Plant response rating, Pigweed [5, 13]: 80; Plant response rating, Velvetleaf [6, 11]: 100; Velvetleaf plant response rating ([6]; Postemergence, 500 g ai/ha): 100; Plant response rating, Velvetleaf [6, 12]: 80; Plant response rating, Velvetleaf [6, 13]: 100; Plant response rating, Wheat [7, 11]: 20; Wheat plant response rating ([7]; Postemergence, 500 g ai/ha): 50; Plant response rating, Wheat [7, 12]: 20; Plant response rating, Wheat [7, 13]: 40; Plant response rating, Barnyardgrass [8]: 20; Barnyardgrass plant response rating [8]: 0; Plant response rating, Ducksalad [9]: 70; Ducksalad plant response rating [9]: 40; Plant response rating, Rice (rice (Oryza sativa)): 0; Rice plant response rating (rice (Oryza sativa)): 0; Plant response rating, Sedge, Umbrella [10]: 80; Sedge, Umbrella plant response rating [10]: 70 |
| CCc1ccc(-n2c(-c3cccc(Cl)c3)ncc(C(=O)C3=C(O)CCCC3=O)c2=O)cc1 [Compound 174] | 90 | 100 | 0 | 40 | 10 | 20 | 10 | 20 | 20 | 60 | 0 | 40 | 70 | 90 | 20 | 60 | 30 | 0 | 100 | 100 | Morningglory plant response rating ([4]; Postemergence, 500 g ai/ha): 60; Plant response rating, Morningglory [4, 13]: 0; Plant response rating, Pigweed [5, 12]: 30; Plant response rating, Pigweed [5, 13]: 90; Plant response rating, Velvetleaf [6, 11]: 100; Velvetleaf plant response rating ([6]; Postemergence, 500 g ai/ha): 100; Plant response rating, Velvetleaf [6, 12]: 20; Plant response rating, Velvetleaf [6, 13]: 70; Plant response rating, Wheat [7, 11]: 0; Wheat plant response rating ([7]; Postemergence, 500 g ai/ha): 0; Plant response rating, Wheat [7, 12]: 0; Plant response rating, Wheat [7, 13]: 0; Plant response rating, Barnyardgrass [8]: 0; Barnyardgrass plant response rating [8]: 0; Plant response rating, Ducksalad [9]: 95; Ducksalad plant response rating [9]: 80; Plant response rating, Rice (rice (Oryza sativa)): 0; Rice plant response rating (rice (Oryza sativa)): 0; Plant response rating, Sedge, Umbrella [10]: 95; Sedge, Umbrella plant response rating [10]: 85 |
| CCc1ccc(-n2c(-c3cccc(Br)c3)ncc(C(=O)C3=C(O)CCCC3=O)c2=O)cc1 [Compound 177] | 80 | 100 | 0 | 10 | 0 | 0 | 0 | 20 | 0 | 40 | 0 | 20 | 30 | 70 | 0 | 10 | 0 | 0 | 100 | 100 | Morningglory plant response rating ([4]; Postemergence, 500 g ai/ha): 10; Plant response rating, Pigweed [5, 12]: 0; Plant response rating, Pigweed [5, 13]: 50; Plant response rating, Velvetleaf [6, 11]: 90; Velvetleaf plant response rating ([6]; Postemergence, 500 g ai/ha): 100; Plant response rating, Velvetleaf [6, 12]: 10; Plant response rating, Velvetleaf [6, 13]: 40; Plant response rating, Wheat [7, 11]: 0; Wheat plant response rating ([7]; Postemergence, 500 g ai/ha): 0; Plant response rating, Wheat [7, 12]: 0; Plant response rating, Wheat [7, 13]: 0; Plant response rating, Barnyardgrass [8]: 15; Barnyardgrass plant response rating [8]: 0; Plant response rating, Ducksalad [9]: 70; Ducksalad plant response rating [9]: 30; Plant response rating, Rice (rice (Oryza sativa)): 20; Rice plant response rating (rice (Oryza sativa)): 15; Plant response rating, Sedge, Umbrella [10]: 75; Sedge, Umbrella plant response rating [10]: 60 |
